Source: EP4703354A1, “COMPOUND AS CCR6 ANTAGONIST, AND PHARMACEUTICAL COMPOSITION AND USE THEREOF” (Wuhan Createrna Science and Technology Co.,Ltd., priority 2023, dated 2024)

Experiments:
human CCR6 = target: T1, human CCR6 (Homo sapiens, UniProt P51684); assay: human CCR6 calcium flux activity (FLIPR, HEK293 cells stably expressing human CCR6, CCL20 stimulation); type: cell-based; details: HEK293 cells stably expressing human CCR6, EC80 human MIP-3 alpha/CCL20; read-out: CCR6 inhibitory activity, IC50
T1 construct: expressed in transfected cells; host or cells: HEK293
T1 sequence (P51684 1-374): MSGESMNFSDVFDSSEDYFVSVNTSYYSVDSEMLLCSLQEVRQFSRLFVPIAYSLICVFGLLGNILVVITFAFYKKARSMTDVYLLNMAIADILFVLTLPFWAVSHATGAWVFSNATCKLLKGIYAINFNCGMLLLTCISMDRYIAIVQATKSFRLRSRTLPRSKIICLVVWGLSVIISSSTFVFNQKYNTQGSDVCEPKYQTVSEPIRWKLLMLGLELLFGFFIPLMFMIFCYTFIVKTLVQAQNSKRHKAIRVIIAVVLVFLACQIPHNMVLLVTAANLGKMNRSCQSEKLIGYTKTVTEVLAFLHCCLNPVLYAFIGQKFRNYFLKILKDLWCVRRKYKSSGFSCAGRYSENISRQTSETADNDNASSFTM
Protocol: The activity of the compounds was evaluated using HEK293 cells stably expressing human CCR6 via the FLIPR platform. A 384-well black cell culture plate (Greiner, 781946) was used, with a seeding density of 20,000 cells/well, and incubated overnight at 37°C in a 5% CO2 incubator. The culture medium in the cell plate wells was removed, and 20 µL of Fluo-4 Direct™ Calcium Assay Buffer (Invitrogen, F10471, Component C), 20 µL of 2× Fluo-4 Direct™ Calcium Assay Reagent (Invitrogen, F10471, Component A) working solution, and 10 µL of 6× test compound working solution were sequentially added to each well. The cell plate was incubated in a 37 °C, 5% CO2 incubator for 50 min, followed by a 10 min incubation at room temperature. Additionally, a 6×EC80 human MIP-3 alpha/CCL20 (MCE, HY-P7262) working solution was prepared. After the incubation was completed, 10 µL/well of the 6×EC80 human MIP-3 alpha/CCL20 working solution was transferred to the cell plate using a FLIPR instrument, and the fluorescence signal changes at an excitation wavelength of 494 nm and an emission wavelength of 516 nm were recorded over 90 seconds. The difference between the maximum fluorescence signal (RFUMax) and the minimum fluorescence signal (RFUMin) was used as the output signal. The compound inhibition rate and the log value of the compound concentration were calculated, and a four-parameter fitting analysis was performed using GraphPad Prism 8 software to obtain the IC50 value of the test compound.

[1] = in vivo pharmacokinetic study in SD rats; details: male, rat, plasma; for bioavailability: 1 mg/kg PO vs 1 mg/kg IV, read-out: Oral bioavailability F (%)
Protocol: 2.2.1 Rats: SD rats, SPF grade, 6 rats per compound, male, body weight range 180-200 g.
2.2.2 Housing conditions: The animals were housed in an SPF-grade animal facility with free access to food and water, three per cage, under a 12/12-hour light/dark cycle (7:00 am/7:00 pm), at a temperature of 23 ± 3°C.
2.2.3 Drug preparation: The compound was precisely weighed, mixed with the required volume of 1% Tween 80, vortexed for 2 min, and then sonicated for 5 min until no visible particles remained. The mixture was subsequently stirred on a magnetic stirrer for 20 min, and the middle layer of the drug solution was collected for administration. For the IV group, the compound was accurately weighed, dissolved in the required volume of 50% PEG400, sonicated for 10 min, and vortexed until clear before administration.
The rats were randomly divided into 2 groups based on body weight, with 3 rats per compound per group. Group 1 was administered a single oral gavage dose (fasted), and Group 2 was administered a single tail vein bolus injection. Blood collection time points: for the po group, blood was collected at 0.167 h, 0.5 h, 1 h, 2 h, 3 h, 4 h, 6 h, and 8 h; for the iv group, blood was collected at 0.033 h, 0.167 h, 0.5 h, 1 h, 2 h, 4 h, 6 h, and 8 h.
After administration to the rats, blood was collected from the orbital venous plexus according to the sampling time points. Approximately 0.2-0.3 mL of blood was collected at each time point into anticoagulant EP tubes (containing 4 µL of EDTA-K2, 375 mg/mL, dried at 50°C). The tubes were slowly inverted up and down three times and stored in an ice box (for no more than 30 minutes). Centrifugation was performed at 4°C at 3000 × g for 10 minutes, and the supernatant was transferred to labeled EP tubes for bioanalytical testing. If testing could not be performed on the same day, the samples were stored at -80°C until analysis (care was taken to avoid multiple freeze/thaw cycles).
The data were analyzed using WinNonlin via a non-compartmental model to obtain PK parameters (Cmax, AUC0-last, AUCinf, T1/2, etc., selected based on different routes of administration). For specific data, please refer to Table 2. Table 2. PK experimental results of compounds in SD rats

IC50 (human CCR6) | SMILES | further results
196 nM | Cc1cncnc1C(Nc1c(Nc2ccnc(C(=O)N(C)C)c2O)c(=O)c1=O)C1(C)CCCC1 (stereo not shown) [compound 052, 3-hydroxy-N,N-dimethyl-4-((2-(((1-methylcyclopentyl)(5-methylpyrimidin-4-yl)methyl)amino)-3,4-dioxocyclobut-1-en-1-yl)amino)picolinamide] | –
13.6 nM | Cc1cccnc1[C@H](Nc1c(Nc2ccnc(C(=O)N3CCOCC3)c2O)c(=O)c1=O)C1(C)CCCC1 [compound 059, (R)-3-((3-hydroxy-2-(morpholine-4-carbonyl)pyridin-4-yl)amino)-4-(((1-methylcyclopentyl)(3-methylpyridin-2-yl)methyl)amino)cyclobut-3-ene-1,2-dione] | –
152 nM | Cc1cnc([C@H](Nc2c(Nc3ccnc(C(=O)N(C)C)c3O)c(=O)c2=O)C2(C)CCCC2)c(C)c1 [compound 061, (R)-4-((2-(((3,5-dimethylpyridin-2-yl)(1-methylcyclopentyl)methyl)amino)-3,4-dioxocyclobut-1-en-1-yl)amino)-3-hydroxy-N,N-dimethylpicolinamide] | –
17.6 nM | Cc1cccnc1[C@H](Nc1c(Nc2ccnc(C(=O)N(C)C)c2O)c(=O)c1=O)C12CC(C1)C2 [compound 077, (R)-4-((2-((bicyclo[1.1.1]pentan-1-yl(3-methylpyridin-2-yl)methyl)amino)-3,4-dioxocyclobut-1-en-1-yl)amino)-3-hydroxy-N,N-dimethylpicolinamide] | bioavailability [1]: 39.8%; AUC(0-t) ([1]; 1 mg/kg, IV): 683 ng·h/mL; Cmax ([1]; 1 mg/kg, IV): 2280 ng/mL; AUC(0-t) ([1]; 1 mg/kg, PO): 272 ng·h/mL; Cmax ([1]; 1 mg/kg, PO): 158 ng/mL
17.3 nM | Cc1cccnc1[C@H](Nc1c(Nc2ccnc(C(=O)N(C)C)c2O)c(=O)c1=O)C1(C)CC(F)(F)C1 [compound 079, (R)-4-((2-(((3,3-difluoro-1-methylcyclobutyl)(3-methylpyridin-2-yl)methyl)amino)-3,4-dioxocyclobut-1-en-1-yl)amino)-3-hydroxy-N,N-dimethylpicolinamide] | bioavailability [1]: 42.5%; AUC(0-t) ([1]; 1 mg/kg, IV): 1180 ng·h/mL; Cmax ([1]; 1 mg/kg, IV): 3670 ng/mL; AUC(0-t) ([1]; 1 mg/kg, PO): 499 ng·h/mL; Cmax ([1]; 1 mg/kg, PO): 566 ng/mL; half-life ([1]; 1 mg/kg, PO): 2.01 h
73.6 nM | Cc1cccnc1[C@H](Nc1c(Nc2ccc(C)c(C(=O)N(C)C)c2O)c(=O)c1=O)C1(C)CCCC1 [compound 103, (R)-2-hydroxy-N,N,6-trimethyl-3-((2-(((1-methylcyclopentyl)(3-methylpyridin-2-yl)methyl)amino)-3,4-dioxocyclobut-1-en-1-yl)amino)benzamide] | –
4 nM | Cc1cccnc1[C@H](Nc1c(Nc2ccc(F)c(C(=O)N(C)C)c2O)c(=O)c1=O)C1(C)CCCC1 [compound 104, (R)-6-fluoro-2-hydroxy-N,N-dimethyl-3-((2-(((1-methylcyclopentyl)(3-methylpyridin-2-yl)methyl)amino)-3,4-dioxocyclobut-1-en-1-yl)amino)benzamide] | –
183 nM | CN(C)C(=O)c1nccc(Nc2c(N[C@@H](C#Cc3ccccn3)C3(C)CCCC3)c(=O)c2=O)c1O [compound 118, (R)-3-hydroxy-N,N-dimethyl-4-((2-((1-(1-methylcyclopentyl)-3-(pyridin-2-yl)prop-2-yn-1-yl)amino)-3,4-dioxocyclobut-1-en-1-yl)amino)picolinamide] | –
86.2 nM | Cc1ccc(F)nc1C(Nc1c(Nc2ccnc(C(=O)N(C)C)c2O)c(=O)c1=O)C1(C)CC2CC2C1 (stereo not shown) [compound 121, 4-((2-(((6-fluoro-3-methylpyridin-2-yl)(3-methylbicyclo[3.1.0]hexan-3-yl)methyl)amino)-3,4-dioxocyclobut-1-en-1-yl)amino)-3-hydroxy-N,N-dimethylpicolinamide] | –
181 nM | Cc1cccnc1C(Nc1c(Nc2ccnc(C(=O)N(C)C)c2O)c(=O)c1=O)C1(C)CC2CC2C1 (stereo not shown) [compound 122, 3-hydroxy-N,N-dimethyl-4-((2-(((3-methylbicyclo[3.1.0]hexan-3-yl)(3-methylpyridin-2-yl)methyl)amino)-3,4-dioxocyclobut-1-en-1-yl)amino)picolinamide] | –
265 nM | Cc1cccnc1C(Nc1c(Nc2ccnc(C(=O)N(C)C)c2O)c(=O)c1=O)C1(C)CCC2CC21 (stereo not shown) [compound 123, 3-hydroxy-N,N-dimethyl-4-((2-(((2-methylbicyclo[3.1.0]hexan-2-yl)(3-methylpyridin-2-yl)methyl)amino)-3,4-dioxocyclobut-1-en-1-yl)amino)picolinamide] | –
